{"source": "the NIST ThermoML archive (doi:10.1016/j.jct.2004.10.005)", "key": {"[1]": {"test": "Molar enthalpy of transition or fusion"}, "[2]": {"test": "molar heat capacity at constant pressure", "details": "101.33 kPa"}, "[3]": {"details": "Crystal 2, Adiabatic calorimetry"}, "[4]": {"details": "Crystal 3, Adiabatic calorimetry"}, "[5]": {"details": "Crystal 4, Adiabatic calorimetry"}}, "note": "Numbers after ± are expanded uncertainties.", "data": [{"smiles": "BrC12CC3CC(CC(C3)C1)C2", "note": "[1-bromotricyclo[3.3.1.1(3,7)]decane]", "values": [{"measurement": "Molar enthalpy of transition or fusion", "setting": "[1]; Crystal 1, DSC", "value": "3.97 ± 0.21", "unit": "kJ/mol"}, {"measurement": "Molar enthalpy of transition or fusion", "setting": "[1]; [3]", "value": "7.42 ± 0.25", "unit": "kJ/mol"}, {"measurement": "Molar enthalpy of transition or fusion", "setting": "[1]; Crystal 2, DSC", "value": "7.51 ± 0.29", "unit": "kJ/mol"}, {"measurement": "Molar enthalpy of transition or fusion", "setting": "[1]; [4]", "value": "1.387 ± 0.01", "unit": "kJ/mol"}, {"measurement": "Molar enthalpy of transition or fusion", "setting": "[1]; [5]", "value": "0.00144 ± 0.0026", "unit": "kJ/mol"}, {"measurement": "Triple point temperature", "setting": "Crystal 1, DTA", "value": "391.8 ± 0.4", "unit": "K"}, {"measurement": "Triple point temperature", "setting": "[3]", "value": "309.9 ± 0.1", "unit": "K"}, {"measurement": "Triple point temperature", "setting": "Crystal 2, DTA", "value": "309.8 ± 0.4", "unit": "K"}, {"measurement": "Triple point temperature", "setting": "[4]", "value": "282.2 ± 0.1", "unit": "K"}, {"measurement": "Triple point temperature", "setting": "[5]", "value": "31 ± 0.1", "unit": "K"}, {"measurement": "molar heat capacity at constant pressure", "setting": "[2]; 5 K, Crystal 4, Vacuum adiabatic calorimetry", "value": "0.6485 ± 0.024", "unit": "J/K/mol"}, {"measurement": "molar heat capacity at constant pressure", "setting": "[2]; 10 K, Crystal 4, Vacuum adiabatic calorimetry", "value": "4.755 ± 0.093", "unit": "J/K/mol"}, {"measurement": "molar heat capacity at constant pressure", "setting": "[2]; 15 K, Crystal 4, Vacuum adiabatic calorimetry", "value": "11.51 ± 0.19", "unit": "J/K/mol"}, {"measurement": "molar heat capacity at constant pressure", "setting": "[2]; 20 K, Crystal 4, Vacuum adiabatic calorimetry", "value": "18.36 ± 0.25", "unit": "J/K/mol"}, {"measurement": "molar heat capacity at constant pressure", "setting": "[2]; 25 K, Crystal 4, Vacuum adiabatic calorimetry", "value": "24.35 ± 0.27", "unit": "J/K/mol"}, {"measurement": "molar heat capacity at constant pressure", "setting": "[2]; 30 K, Crystal 4, Vacuum adiabatic calorimetry", "value": "29.52 ± 0.26", "unit": "J/K/mol"}, {"measurement": "molar heat capacity at constant pressure", "setting": "[2]; 31 K, Crystal 3, Vacuum adiabatic calorimetry", "value": "30.48 ± 0.26", "unit": "J/K/mol"}, {"measurement": "molar heat capacity at constant pressure", "setting": "[2]; 31 K, Crystal 4, Vacuum adiabatic calorimetry", "value": "30.48 ± 0.26", "unit": "J/K/mol"}, {"measurement": "molar heat capacity at constant pressure", "setting": "[2]; 35 K, Crystal 3, Vacuum adiabatic calorimetry", "value": "33.96 ± 0.22", "unit": "J/K/mol"}, {"measurement": "molar heat capacity at constant pressure", "setting": "[2]; 40 K, Crystal 3, Vacuum adiabatic calorimetry", "value": "37.77 ± 0.17", "unit": "J/K/mol"}, {"measurement": "molar heat capacity at constant pressure", "setting": "[2]; 45 K, Crystal 3, Vacuum adiabatic calorimetry", "value": "41.08 ± 0.18", "unit": "J/K/mol"}, {"measurement": "molar heat capacity at constant pressure", "setting": "[2]; 50 K, Crystal 3, Vacuum adiabatic calorimetry", "value": "44.09 ± 0.2", "unit": "J/K/mol"}, {"measurement": "molar heat capacity at constant pressure", "setting": "[2]; 60 K, Crystal 3, Vacuum adiabatic calorimetry", "value": "49.73 ± 0.22", "unit": "J/K/mol"}, {"measurement": "molar heat capacity at constant pressure", "setting": "[2]; 70 K, Crystal 3, Vacuum adiabatic calorimetry", "value": "55.13 ± 0.24", "unit": "J/K/mol"}, {"measurement": "molar heat capacity at constant pressure", "setting": "[2]; 80 K, Crystal 3, Vacuum adiabatic calorimetry", "value": "60.5 ± 0.27", "unit": "J/K/mol"}, {"measurement": "molar heat capacity at constant pressure", "setting": "[2]; 90 K, Crystal 3, Vacuum adiabatic calorimetry", "value": "65.87 ± 0.32", "unit": "J/K/mol"}, {"measurement": "molar heat capacity at constant pressure", "setting": "[2]; 100 K, Crystal 3, Vacuum adiabatic calorimetry", "value": "71.25 ± 0.34", "unit": "J/K/mol"}, {"measurement": "molar heat capacity at constant pressure", "setting": "[2]; 110 K, Crystal 3, Vacuum adiabatic calorimetry", "value": "76.65 ± 0.37", "unit": "J/K/mol"}, {"measurement": "molar heat capacity at constant pressure", "setting": "[2]; 120 K, Crystal 3, Vacuum adiabatic calorimetry", "value": "82.11 ± 0.39", "unit": "J/K/mol"}, {"measurement": "molar heat capacity at constant pressure", "setting": "[2]; 130 K, Crystal 3, Vacuum adiabatic calorimetry", "value": "87.63 ± 0.4", "unit": "J/K/mol"}, {"measurement": "molar heat capacity at constant pressure", "setting": "[2]; 140 K, Crystal 3, Vacuum adiabatic calorimetry", "value": "93.24 ± 0.42", "unit": "J/K/mol"}, {"measurement": "molar heat capacity at constant pressure", "setting": "[2]; 150 K, Crystal 3, Vacuum adiabatic calorimetry", "value": "99.03 ± 0.45", "unit": "J/K/mol"}, {"measurement": "molar heat capacity at constant pressure", "setting": "[2]; 160 K, Crystal 3, Vacuum adiabatic calorimetry", "value": "105 ± 0.5", "unit": "J/K/mol"}, {"measurement": "molar heat capacity at constant pressure", "setting": "[2]; 170 K, Crystal 3, Vacuum adiabatic calorimetry", "value": "111.2 ± 0.5", "unit": "J/K/mol"}, {"measurement": "molar heat capacity at constant pressure", "setting": "[2]; 180 K, Crystal 3, Vacuum adiabatic calorimetry", "value": "117.7 ± 0.6", "unit": "J/K/mol"}, {"measurement": "molar heat capacity at constant pressure", "setting": "[2]; 190 K, Crystal 3, Vacuum adiabatic calorimetry", "value": "124.4 ± 0.6", "unit": "J/K/mol"}, {"measurement": "molar heat capacity at constant pressure", "setting": "[2]; 200 K, Crystal 3, Vacuum adiabatic calorimetry", "value": "131.5 ± 0.6", "unit": "J/K/mol"}, {"measurement": "molar heat capacity at constant pressure", "setting": "[2]; 210 K, Crystal 3, Vacuum adiabatic calorimetry", "value": "138.9 ± 0.6", "unit": "J/K/mol"}, {"measurement": "molar heat capacity at constant pressure", "setting": "[2]; 220 K, Crystal 3, Vacuum adiabatic calorimetry", "value": "146.5 ± 0.7", "unit": "J/K/mol"}, {"measurement": "molar heat capacity at constant pressure", "setting": "[2]; 230 K, Crystal 3, Vacuum adiabatic calorimetry", "value": "154.9 ± 0.7", "unit": "J/K/mol"}, {"measurement": "molar heat capacity at constant pressure", "setting": "[2]; 240 K, Crystal 3, Vacuum adiabatic calorimetry", "value": "164.8 ± 0.7", "unit": "J/K/mol"}, {"measurement": "molar heat capacity at constant pressure", "setting": "[2]; 250 K, Crystal 3, Vacuum adiabatic calorimetry", "value": "175.5 ± 0.8", "unit": "J/K/mol"}, {"measurement": "molar heat capacity at constant pressure", "setting": "[2]; 260 K, Crystal 3, Vacuum adiabatic calorimetry", "value": "185.9 ± 0.8", "unit": "J/K/mol"}, {"measurement": "molar heat capacity at constant pressure", "setting": "[2]; 270 K, Crystal 3, Vacuum adiabatic calorimetry", "value": "195.4 ± 0.8", "unit": "J/K/mol"}, {"measurement": "molar heat capacity at constant pressure", "setting": "[2]; 273.15 K, Crystal 3, Vacuum adiabatic calorimetry", "value": "198.1 ± 0.9", "unit": "J/K/mol"}, {"measurement": "molar heat capacity at constant pressure", "setting": "[2]; 280 K, Crystal 3, Vacuum adiabatic calorimetry", "value": "203.6 ± 0.9", "unit": "J/K/mol"}, {"measurement": "molar heat capacity at constant pressure", "setting": "[2]; 282.2 K, Crystal 2, Vacuum adiabatic calorimetry", "value": "205.2 ± 0.9", "unit": "J/K/mol"}, {"measurement": "molar heat capacity at constant pressure", "setting": "[2]; 282.2 K, Crystal 3, Vacuum adiabatic calorimetry", "value": "205.2 ± 0.9", "unit": "J/K/mol"}, {"measurement": "molar heat capacity at constant pressure", "setting": "[2]; 290 K, Crystal 2, Vacuum adiabatic calorimetry", "value": "210.6 ± 0.9", "unit": "J/K/mol"}, {"measurement": "molar heat capacity at constant pressure", "setting": "[2]; 298.15 K, Crystal 2, Vacuum adiabatic calorimetry", "value": "215.4 ± 0.9", "unit": "J/K/mol"}, {"measurement": "molar heat capacity at constant pressure", "setting": "[2]; 300 K, Crystal 2, Vacuum adiabatic calorimetry", "value": "216.5 ± 0.9", "unit": "J/K/mol"}, {"measurement": "molar heat capacity at constant pressure", "setting": "[2]; 309.9 K, Crystal 1, Vacuum adiabatic calorimetry", "value": "246.3 ± 1.1", "unit": "J/K/mol"}, {"measurement": "molar heat capacity at constant pressure", "setting": "[2]; 309.9 K, Crystal 2, Vacuum adiabatic calorimetry", "value": "221.9 ± 0.9", "unit": "J/K/mol"}, {"measurement": "molar heat capacity at constant pressure", "setting": "[2]; 310 K, Crystal 1, Vacuum adiabatic calorimetry", "value": "246.5 ± 1.1", "unit": "J/K/mol"}, {"measurement": "molar heat capacity at constant pressure", "setting": "[2]; 320 K, Crystal 1, Vacuum adiabatic calorimetry", "value": "257.5 ± 1.1", "unit": "J/K/mol"}, {"measurement": "molar heat capacity at constant pressure", "setting": "[2]; 330 K, Crystal 1, Large sample (1 g) DSC", "value": "279.7 ± 6.9", "unit": "J/K/mol"}, {"measurement": "molar heat capacity at constant pressure", "setting": "[2]; 340 K, Crystal 1, Large sample (1 g) DSC", "value": "297 ± 7.2", "unit": "J/K/mol"}, {"measurement": "molar heat capacity at constant pressure", "setting": "[2]; 350 K, Crystal 1, Large sample (1 g) DSC", "value": "302.1 ± 7.4", "unit": "J/K/mol"}, {"measurement": "molar heat capacity at constant pressure", "setting": "[2]; 360 K, Crystal 1, Large sample (1 g) DSC", "value": "305.2 ± 7.5", "unit": "J/K/mol"}, {"measurement": "molar heat capacity at constant pressure", "setting": "[2]; 370 K, Crystal 1, Large sample (1 g) DSC", "value": "305.7 ± 7.5", "unit": "J/K/mol"}, {"measurement": "molar heat capacity at constant pressure", "setting": "[2]; 380 K, Crystal 1, Large sample (1 g) DSC", "value": "305.9 ± 7.5", "unit": "J/K/mol"}, {"measurement": "molar heat capacity at constant pressure", "setting": "[2]; 390 K, Crystal 1, Large sample (1 g) DSC", "value": "306.1 ± 7.5", "unit": "J/K/mol"}, {"measurement": "molar heat capacity at constant pressure", "setting": "[2]; 391.8 K, Crystal 1, Large sample (1 g) DSC", "value": "306.1 ± 7.5", "unit": "J/K/mol"}, {"measurement": "molar heat capacity at constant pressure", "setting": "[2]; 391.8 K, Liquid, Large sample (1 g) DSC", "value": "311.4 ± 7.6", "unit": "J/K/mol"}, {"measurement": "molar heat capacity at constant pressure", "setting": "[2]; 400 K, Liquid, Large sample (1 g) DSC", "value": "311.6 ± 7.6", "unit": "J/K/mol"}, {"measurement": "molar heat capacity at constant pressure", "setting": "[2]; 410 K, Liquid, Large sample (1 g) DSC", "value": "312 ± 7.6", "unit": "J/K/mol"}, {"measurement": "molar heat capacity at constant pressure", "setting": "[2]; 420 K, Liquid, Large sample (1 g) DSC", "value": "312.3 ± 7.6", "unit": "J/K/mol"}, {"measurement": "molar heat capacity at constant pressure", "setting": "[2]; 430 K, Liquid, Large sample (1 g) DSC", "value": "312.7 ± 7.7", "unit": "J/K/mol"}]}]}
